Results published in article PMC6234764, “First Insights Into Within Host Translocation of the Bacillus cereus Toxin Cereulide Using a Porcine Model” (Frontiers in Microbiology, 2018).

Experiments:
[1] = system: Peripheral blood mononuclear cells (PBMC); test: Flow cytometric analysis of PBMC populations; assay type: in vivo, pig
Procedure: Peripheral blood mononuclear cells (PBMC) were isolated from heparin-stabilized blood samples (5–8 mL) using Ficoll-Hypaque (PAA, Austria) density centrifugation as described elsewhere ([Saalmüller et al., 1987]). For flow cytometric (FCM) analysis PMBCs were labeled with monoclonal antibodies as indicated in Supplementary Table S1 and stained with the respective isotype-specific conjugates. For analysis of regulatory T cells, cells were fixed and permeabilized by using Foxp3 Staining Buffer Set (eBioscience) in accordance with the manufacturer‘s instructions or for B cells by a FormSap-F&P permeabilization and fixation protocol as described previously ([Gerner et al., 2008]; [Käser et al., 2008]). Samples were analyzed immediately after the final washing steps. Flow cytometric analyses were performed on a FACSCantoII (BD Bioscience). 50,000 events were collected for each sample. Data were analyzed using FACSDiva software 6.1.3 (BD Bioscience) and FlowJo software 7.6.
Neg a tiv e c ontr ol - - - - Isoty p co ntr ol Ig G2b 1 Anti-Ig G2b-Alexa488 2 - - Isoty pe cont rol Isoty p co ntr ol Ig G 1 Anti-Ig G1-RPE 3 […]
T he lp er ce lls Anti-CD4 (74-12-4; IgG2b) 4 Anti-Ig G2b-Alexa488 2 - - NK ce lls Anti-CD3 (PPT3; IgG1) 5 Anti-Ig G1-RPE 3 […]

[2] = ref Ehling-Schulz et al., 2004, Rajkovic et al., 2008, cited from earlier work
Description: The reported incidence of foodborne outbreaks caused by Bacillus toxins is steadily increasing worldwide throughout the last decade. For instance, in the European Union about 600–700 confirmed cases of foodborne outbreaks linked to B. cereus toxins are annually reported ([Messelhäußer and Ehling-Schulz, 2018]). Due to the rise of reports on severe intoxications, the Bacillus cereus toxin cereulide is of special concern. Cereulide is a small dodecadepsipeptide toxin that evokes emesis a short time after ingestion of contaminated food ([Agata et al., 1995]). Usally the disease is self limiting b ...

[3] = plasma of rabbits, direct intravenous injection; ref Cui et al., 2016; cited from earlier work
[4] = ref Andersson et al., 2007; cited from earlier work
Procedure: Due to the lipophilic character of cereulide (log Kow 5.96) ([Andersson et al., 2007]), it could be assumed that part of the ingested cereulide adheres to digested food and is rapidly excreted via feces. Indeed, as shown in our porcine model, within the first 48 h 10–15% of the cereulide toxin orally administered is shed with feces. Cereulide was already detected in feces a few hours after toxin administration, which allows an early, non-invasive identification of cereulide intoxications. Even in case of the low dose of cereulide used in the chronic trial (10 μg cereulide kg^-1) cereulide coul ...

piglets = test: Histological examination of organs; assay type: in vivo, pig; details: pigs orally challenged with cereulide
Procedure: After oral administration of cereulide, piglets were monitored for unusual behavior and examined physically with special respect on rectal body temperature as well as pulse and respiration rate, every 2–3 h. Blood samples were taken from the Vena cava cranialis. Urine and feces were collected during the whole experiment and stored at -80°C. After the experiment pigs were anaesthetized by intramuscular injection of a bolus of ketamine (10 mg kg^-1) and azaperone (1.3 mg kg^-1). When sedation was deep enough cerebrospinal fluid (liquor) was taken by lumbar puncture. Finally, pigs were euthanized by intracardial injection of T61®. Animals were then necropsied and parts of the following organs, tissues or body fluids were taken for SIDA-MS analysis: liver, lung, heart, kidney, brain, spleen, small and large intestine, lymph nodes, gastric as well as intestinal contents, skeletal muscle, and abdominal and subcutaneous fat. Samples of liver, lung, heart, kidney, brain, spleen, small, and large intestine were collected for histological analysis.

CC(C)C[C@H]1OC(=O)[C@H](C(C)C)NC(=O)[C@H](C(C)C)OC(=O)[C@@H](C)NC(=O)[C@@H](CC(C)C)OC(=O)[C@H](C(C)C)NC(=O)[C@H](C(C)C)OC(=O)[C@@H](C)NC(=O)[C@@H](CC(C)C)OC(=O)[C@H](C(C)C)NC(=O)[C@H](C(C)C)OC(=O)[C@@H](C)NC1=O [cereulide]
Cell composition of PBMCs in comparison to control pigs ([1]; after oral administration of cereulide): no significant changes | Proportions of blood cell populations ([1]; daily oral dose 10 μg kg^-1 over 7 days): remained stable | Stability to enzymatic cleavage ([2]; gastro-intestinal passage): resistance to enzymatic cleavage | Temperature and pH stability [2]: high temperature and pH stability | Elimination half-life [3]: 10.8 ± 9.1 h | log Kow [4]: 5.96 | Histological examinations of liver, lung, heart, kidneys, brain, spleen and gastrointestinal tract (piglets): did not reveal any notable or specific pathological changes
